Read-outs that look alike come from different tables or passages of the source.
Experiments:
[1] = target: NlugOBP1 (Nilaparvata lugens, UniProt B6E9U1); experiment: Competitive fluorescence binding assay (1-NPN probe) with recombinant NlugOBP1
Procedure: (§1) The excitation wavelength was 337 nm and the emission spectrum was recorded between 370 and 460 nm by a fluorescence spectrometer (Hitachi F-7000 Fluorescence Spectrophotometer, Japan) with a 1 cm light path quartz cuvette and 10 nm slits for both excitation and emission.

[2] = target: NlugOBP3 (Nilaparvata lugens, UniProt B6E9U3); experiment: Competitive fluorescence binding assay (1-NPN probe) with recombinant NlugOBP3
Procedure: as §1

[3] = target: NlugOBP2 (Nilaparvata lugens, UniProt B6E9U2); experiment: Competitive fluorescence binding assay (1-NPN probe) with recombinant NlugOBP2
Procedure: as §1

[4] = calculated from IC50, protein and 1-NPN at 2 µM, pH 7.4, read-out: OBP1 Ki
[5] = displacement of 1-NPN, protein and 1-NPN at 2 µM, 50 mM Tris-HCl pH 7.4, read-out: OBP1 IC50
[6] = calculated from IC50, protein and 1-NPN at 2 µM, pH 7.4, read-out: OBP3 Ki
[7] = displacement of 1-NPN, protein and 1-NPN at 2 µM, 50 mM Tris-HCl pH 7.4, read-out: OBP3 IC50
[8] = calculated from IC50, protein and 1-NPN at 2 µM, pH 7.4, read-out: OBP2 Ki
[9] = displacement of 1-NPN, protein and 1-NPN at 2 µM, 50 mM Tris-HCl pH 7.4, read-out: OBP2 IC50

Sequence of NlugOBP1 (B6E9U1 entry or part of it): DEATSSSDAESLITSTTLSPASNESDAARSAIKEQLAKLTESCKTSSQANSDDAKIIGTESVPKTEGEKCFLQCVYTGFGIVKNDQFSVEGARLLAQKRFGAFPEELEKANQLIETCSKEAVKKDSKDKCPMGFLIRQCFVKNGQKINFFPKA
Sequence of NlugOBP3 (B6E9U3 entry or part of it): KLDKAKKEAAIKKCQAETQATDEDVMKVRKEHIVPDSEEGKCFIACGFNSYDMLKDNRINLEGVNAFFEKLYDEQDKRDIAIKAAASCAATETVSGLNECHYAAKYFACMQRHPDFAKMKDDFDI
Sequence of NlugOBP2 (B6E9U2 entry or part of it): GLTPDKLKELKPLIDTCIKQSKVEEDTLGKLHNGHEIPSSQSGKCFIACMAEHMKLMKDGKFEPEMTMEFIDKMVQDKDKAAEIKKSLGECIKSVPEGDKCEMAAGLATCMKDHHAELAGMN

SMILES | Ki [1, 4] | IC50 [1, 5] | Ki [2, 6] | IC50 [2, 7] | Ki [3, 8] | IC50 [3, 9] | IC50 [1] | Ki [1] | IC50 [2] | Ki [2] | IC50 [3] | Ki [3] | other results
CCCCCCCCCCCCCC(C)=O [Ligand 16, 2-Pentadecanone] | 25.3 µM | 29.7 µM | 9.6 µM | 13.5 µM | 17 µM | 19.8 µM |  |  |  |  |  |  | binding ability with NlugOBP1 (in words) [1]: relatively high binding abilities; binding ability with NlugOBP3 (in words) [2]: relatively high binding abilities; binding ability with NlugOBP2 (in words) [3]: relatively high binding abilities
CC12CCC(CC1)C(C)(C)O2 [Ligand 40, Cineole] | > 50 µM | > 50 µM | > 50 µM | > 50 µM | > 50 µM | > 50 µM |  |  |  |  |  |  | 
C=C(C)[C@H]1CC=C(C)CC1 [Ligand 35, (R)-(+)-Limonene] | 27.6 µM | 32.4 µM | 23.6 µM | 33.1 µM | > 50 µM | > 50 µM |  |  |  |  |  |  | binding ability with NlugOBP3 (in words) [2]: considerable affinities
C=CC(C)(O)CCC=C(C)C (stereo not drawn) [Ligand 6, Linalool] |  |  |  |  |  |  | 40.8 µM | 34.7 µM | > 50 µM | > 50 µM | > 50 µM | > 50 µM | binding ability with NlugOBP1 (in words) [1]: some affinities; binding ability with NlugOBP3 (in words) [2]: none
CCC/C=C/COC(C)=O [Ligand 20, (E)-2-Hexenyl acetate] | > 50 µM | > 50 µM | 22.4 µM | 31.3 µM | 25.2 µM | 29.3 µM |  |  |  |  |  |  | 
C=C1CC/C=C(\C)CC[C@@H]2[C@@H]1CC2(C)C [Ligand 36, β-Caryophyllene] |  |  |  |  |  |  | > 50 µM | > 50 µM | 37.4 µM | 26.7 µM | 30.1 µM | 25.9 µM | binding ability with NlugOBP3 (in words) [2]: considerable affinities
CCCCCC(C)O (stereo not drawn) [Ligand 2, 2-Heptanol] | > 50 µM | > 50 µM | > 50 µM | > 50 µM | > 50 µM | > 50 µM |  |  |  |  |  |  | 
CCCCCCOC(C)=O [Ligand 21, Hexyl acetate] | 37.9 µM | 44.4 µM | 22 µM | 30.8 µM | > 50 µM | > 50 µM |  |  |  |  |  |  | 
CC(=O)c1ccccc1 [Ligand 17, Acetophenone] | 29.3 µM | 34.3 µM | 23.1 µM | 32.4 µM | 27.8 µM | 32.3 µM |  |  |  |  |  |  | binding ability with NlugOBP1 (in words) [1]: relatively high binding abilities; binding ability with NlugOBP3 (in words) [2]: relatively high binding abilities; binding ability with NlugOBP2 (in words) [3]: relatively high binding abilities
c1ccc(Nc2cccc3ccccc23)cc1 [Ligand 1-NPN, N-phenyl-1-naphthyl-amine, reference compound] |  |  |  |  |  |  |  |  |  |  |  |  | Kd [1]: 9.7 ± 0.9 µM; Kd [2]: 3.2 ± 0.3 µM; Kd [3]: 10.3 ± 1.3 µM
CCCCCCCCCCCCCC [Ligand 32, Tetradecane] | > 50 µM | > 50 µM | > 50 µM | > 50 µM | > 50 µM | > 50 µM |  |  |  |  |  |  | 
CC/C=C\CCOC(C)=O [Ligand 22, (Z)-3-Hexenyl acetate] | > 50 µM | > 50 µM | 27.1 µM | 38 µM | 32.5 µM | 37.8 µM |  |  |  |  |  |  | 
CC(=O)/C=C/C1=C(C)CCCC1(C)C [Ligand 37, β- Ionone] |  |  |  |  |  |  | 25.2 µM | 21.5 µM | 8.5 µM | 6.1 µM | 25.8 µM | 22.2 µM | binding ability with NlugOBP1 (in words) [1]: relatively high binding abilities; binding ability with NlugOBP3 (in words) [2]: relatively high binding abilities; binding ability with NlugOBP2 (in words) [3]: relatively high binding abilities
CCCCCCCCCCCC=O [Ligand 12, Dodecyl aldehyde] | 16.6 µM | 19.5 µM | 18.9 µM | 26.5 µM | > 50 µM | > 50 µM |  |  |  |  |  |  | 
CC(C)=CCC/C(C)=C/CC/C(C)=C/CO [Ligand 5, Farnesol] | 19.5 µM | 22.8 µM | 4.9 µM | 6.9 µM | 19.8 µM | 23 µM |  |  |  |  |  |  | binding ability with NlugOBP1 (in words) [1]: high binding ability; binding ability with NlugOBP3 (in words) [2]: high binding ability; binding ability with NlugOBP2 (in words) [3]: high binding ability
CCOC(=O)c1ccccc1 [Ligand 23, Ethyl benzoate] |  |  |  |  |  |  | > 50 µM | > 50 µM | 39 µM | 27.9 µM | > 50 µM | > 50 µM | 
CC(C)=CCC/C(C)=C/CO [Ligand 8, Geraniol] |  |  |  |  |  |  | > 50 µM | > 50 µM | 32.6 µM | 23.3 µM | > 50 µM | > 50 µM | 
O=Cc1ccccc1 [Ligand 14, Benzaldehyde] |  |  |  |  |  |  | > 50 µM | > 50 µM | 41 µM | 29.3 µM | 38.7 µM | 33.3 µM | 
C=CC(C)(O)CC/C=C(\C)CCC=C(C)C (racemic) [Ligand 3, (+/-)Nerolidol] | 24.2 µM | 28.4 µM | 17.7 µM | 24.8 µM | 29.1 µM | 33.9 µM |  |  |  |  |  |  | 

SMILES | Ki [1, 4] | IC50 [1, 5] | Ki [2, 6] | IC50 [2, 7] | Ki [3, 8] | IC50 [3, 9] | IC50 [1] | Ki [1] | IC50 [2] | Ki [2] | IC50 [3] | Ki [3] | other results
CCCCCCCCCCCCCCCCC [Ligand 30, Heptadecane] | > 50 µM | > 50 µM | > 50 µM | > 50 µM | > 50 µM | > 50 µM |  |  |  |  |  |  | 
COC(=O)c1ccccc1 [Ligand 24, Methyl benzoate] |  |  |  |  |  |  | > 50 µM | > 50 µM | > 50 µM | > 50 µM | > 50 µM | > 50 µM | 
CCCCCCCCCCCCC [Ligand 29, Tridecane] | > 50 µM | > 50 µM | > 50 µM | > 50 µM | > 50 µM | > 50 µM |  |  |  |  |  |  | 
CCCCCCCCCCCCCCCCCCCC [Ligand 28, Eicosane] | > 50 µM | > 50 µM | > 50 µM | > 50 µM | > 50 µM | > 50 µM |  |  |  |  |  |  | 
CC1=CC[C@@H]2C[C@H]1C2(C)C [Ligand 34, (+)-α-Pinene] |  |  |  |  |  |  | 36.4 µM | 31.1 µM | 16.1 µM | 11.5 µM | > 50 µM | > 50 µM | 
CC1CCC(C(C)C)C(O)C1 (stereo not drawn) [Ligand 10, Menthol] |  |  |  |  |  |  | > 50 µM | > 50 µM | > 50 µM | > 50 µM | > 50 µM | > 50 µM | 
CCCCCCCCCCCCCCCCCC [Ligand 31, Octadecane] | > 50 µM | > 50 µM | > 50 µM | > 50 µM | > 50 µM | > 50 µM |  |  |  |  |  |  | 
CC(=O)OCCC(C)C [Ligand 19, Isoamyl acetate] | 30.5 µM | 35.7 µM | > 50 µM | > 50 µM | > 50 µM | > 50 µM |  |  |  |  |  |  | binding ability with NlugOBP1 (in words) [1]: some affinities; binding ability with NlugOBP3 (in words) [2]: none
C=CC(=C)CCC=C(C)C [Ligand 33, Myrcene] | 16.2 µM | 19 µM |  | 10.1 µM | 29.1 µM | 33.9 µM |  |  |  |  |  |  | Ki ([2]; read-out: Ki with NlugOBP3): 7.2 µM
CC/C=C/CCO [Ligand 4, (E)-3-Hexen-1-ol] |  |  |  |  |  |  | > 50 µM | > 50 µM | 29.6 µM | 21.1 µM | > 50 µM | > 50 µM | 
CCCCCCCCCCCCCCCC(=O)O [Ligand 27, Palmitic acid] | 22.1 µM | 25.9 µM | 7.2 µM | 10.1 µM | > 50 µM | > 50 µM |  |  |  |  |  |  | 
COC(C)(C)CCC[C@H](C)C/C=C/C(C)=C/C(=O)OC(C)C (racemic) [Ligand 39, Methoprene] |  |  |  |  |  |  | 19.4 µM | 16.6 µM | 14.7 µM | 10.5 µM | 21.1 µM | 18.1 µM | binding ability with NlugOBP1 (in words) [1]: high binding ability; binding ability with NlugOBP3 (in words) [2]: high binding ability; binding ability with NlugOBP2 (in words) [3]: high binding ability
CCC/C=C/C=O [Ligand 13, (E)-2-Hexenal] |  |  |  |  |  |  | > 50 µM | > 50 µM | 42 µM | 30 µM | 33.5 µM | 28.8 µM | binding ability with NlugOBP1 (in words) [1]: binds none; binding ability with NlugOBP3 (in words) [2]: could bind; binding ability with NlugOBP2 (in words) [3]: can bind
CC(C)c1ccccc1 [Ligand 38, Cumene] |  |  |  |  |  |  | > 50 µM | > 50 µM | 37.2 µM | 26.6 µM | 39.2 µM | 33.7 µM | 
CCCCCOC(C)=O [Ligand 18, Amyl acetate] | > 50 µM | > 50 µM | > 50 µM | > 50 µM | > 50 µM | > 50 µM |  |  |  |  |  |  | 
OCCc1ccccc1 [Ligand 7, 2-phenylethanol] | 34 µM | 39.9 µM | 26.1 µM | 36.6 µM | > 50 µM | > 50 µM |  |  |  |  |  |  | 
CCCCCCCCCCCC(=O)O [Ligand 26, Dodecanoic acid] |  |  |  |  |  |  | 12.1 µM | 10.3 µM | 13.9 µM | 9.9 µM | > 50 µM | > 50 µM | 
CC(C)(C)c1cccc(C(C)(C)C)c1O [Ligand 41, 2,6-Di-tert-butylphenol] | 19 µM | 22.3 µM | 9.5 µM | 13.3 µM | > 50 µM | > 50 µM |  |  |  |  |  |  | 

Reference: paper PMC3235172, “Distinct Expression Profiles and Different Functions of Odorant Binding Proteins in Nilaparvata lugens Stål” (PLoS ONE, 2011)
